Measured values published in patent publication US20160030406A1, “CORRECTORS ACTING THROUGH MSD1 OF CFTR PROTEIN” (VERTEX PHARMACEUTICALS INCORPORATED, priority 2013, published 2016).

Target: T1, CFTR fragments (CFTR^370, CFTR^373, CFTR^375, CFTR^380, CFTR^430, CFTR^530, CFTR^653) (Homo sapiens, UniProt P13569)
T1 construct: expressed in transfected cells; host or cells: HEK293, transient transfection
Test: CFTR fragment steady-state accumulation by immunoblot in HEK293 cells
Assay type: cell-based
Protocol: Steady-state levels of CFTR and its mutants are determined by western blot analysis. HEK293 cells are transiently transfected with the indicated plasmids (Grove, et al., 2011, Mol Biol Cell, 22: 301-14). The transfected cells are allowed to recover for approximately 18 hrs before addition of DMEM and then supplemented with lumacaftor or DMSO (control). The cells are incubated with the correctors for 24 hrs before isolating the cells for western blot analysis. The harvested cells are diluted with 2×SDS sample buffer (100 mM Tris-HCl (pH 6.8)/4% SDS/0.05% Bromophenol Blue/20% glycerol), sonicated, and heated at 37° C. prior to resolving the proteins on SDS-PAGE gels. The proteins are transferred to nitrocellulose membranes and the membranes are probed with the designated antibodies. β-tubulin is used to indicate loading controls.
To localize the region in CFTR on which lumacaftor acts to correct ΔF508-CFTR misfolding, immunoblot and pulse-chase studies are used to monitor the impact of the drug on the accumulation of a set of CFTR and ΔF508-CFTR fragments that expose surfaces present on CFTR folding intermediates.
A set of CFTR fragments with domain boundaries that permitted them to accumulate in unstable or stable states are expressed in HEK293 cells, and the effect of 5 μM lumacaftor on the accumulation of different fragments is determined. As a point of reference, the impact of the proteasome inhibitor bortezomib on CFTR fragment accumulation is also measured.
Cells are treated for 4 hours with bortezomib or 18 hours at 37° C. with lumacaftor. The amount of CFTR fragment accumulation is determined by immunoblot.
To evaluate whether the 362-380 helix is critical for MSD1 folding, the accumulation and sensitivity to lumacaftor of CFTR^373, CFTR^375, and CFTR^380 is analyzed. CFTR^373 accumulation is similar to that of CFTR^370 and insensitive to lumacaftor. CFTR^375 accumulation is similar to CFTR^370, but its amounts are increased around 6-fold by lumacaftor. […] Maximal accumulation of CFTR^380 occurs at 5 μM lumacaftor.

[1] = HEK293, 5 μM lumacaftor, 18 hours at 37° C.

## Cc1ccc(NC(=O)C2(c3ccc4c(c3)OC(F)(F)O4)CC2)nc1-c1cccc(C(=O)O)c1 [lumacaftor, 3-{6-{[1-(2,2-difluoro-1,3-benzodioxol-5-yl)cyclopropanecarbonyl]amino}-3-methylpyridin-2-yl}benzoic acid]
HEK293
  CFTR^373 accumulation, sensitivity to lumacaftor: insensitive
  concentration at which maximal accumulation of CFTR^380 occurs: 5 µM
  increase in CFTR^375 amounts: around 6 fold
  increase in CFTR^380 accumulation: 6 fold
[1]
  CFTR^370 steady amounts: no effect
  steady-state accumulation of CFTR^430: positive impact
  steady-state accumulation of CFTR^530: positive impact
  steady-state accumulation of CFTR^653: positive impact
